We go through two compounds from US20250152584A1, “NLRP3 INFLAMMASOME INHIBITOR AND USES THEREOF” (TransThera Sciences (Nanjing), Inc., priority 2022, published 2025).

The structures appear in SMILES notation.

A short description of data set [1]: Pharmacokinetic study in beagles. Format: in vivo. The note with it: beagle, dog, plasma, male beagles; for Cmax: read-out: Cmax po (peak concentration); for Tmax: read-out: Tmax po (peak time of plasma concentration); for clearance: read-out: Cl—obs iv (clearance rate) (converted); for Vd: read-out: Vss iv (volume of distribution); for bioavailability: iv 1.0 mg/kg / po 1.0 mg/kg, read-out: F % (absolute bioavailability). Here is the method:
Experimental Example 4: Pharmacokinetic Study of Compounds in Beagles
Compound 174 was prepared into a solution with a mixed solvent formulated from 5% dimethyl sulfoxide, 20% (30% solutol) and 75% normal saline; the solution of this compound was administered to male beagles by gavage at a dose of 1.0 mg/kg; and the time points for blood collection were: 15 min, 30 min, 1 b, 2 h, 4 h, 6 b, 8 h, 10 h and 24 h. The solution of the compound was administered to male beagles by intravenous bolus at a dose of 1.0 mg/kg, and the time points for blood collection were as follows: 5 min, 15 min, 30 min, 1 h, 2 h, 4 h, 6 h, 8 h, 10 h, and 24 h.
Compound 177 and Compound 195 were prepared into solutions with a mixed solvent formulated from 5% dimethyl sulfoxide, 20% (30% solutol) and 75% normal saline, respectively; the solutions of these compounds were administered to male beagles by gavage at a dose of 1.0 mg/kg; and the time points for blood collection were: 15 min, 30 min, 1 h, 2 h, 4 h, 6 h, 8 h, 10 h and 24 h. The solution of the compound was administered to male beagles by intravenous bolus at a dose of 1.0 mg/kg, and the time points for blood collection were as follows: 5 min, 15 min, 30 min, 1 h, 2 h, 4 h, 6 h, 8 h, 10 h, and 24 h.
Approximately 400 μL of blood was collected through the medial cephalic vein of the forelimb and placed in an anticoagulant tube containing EDTA-K2. Blood samples were centrifuged at 12,000 rpm for 10 min at 4° C. to obtain plasma samples, and plasma was prepared within 30 min after blood collection. The plasma was stored in a −80° C. freezer before testing.

Data set [2] in a line: Pharmacokinetic study in C57BL/6J mice. Format: in vivo. The note with it: mouse, plasma, C57BL/6J female mice. As for the experimental part: Experimental Example 2: Pharmacokinetic Study of Compounds in C57BL/6J Mice
Compound 100, Compound 54, Compound 174, Compound 179, and Compound 253 were prepared into solutions with a mixed solvent formulated from 5% dimethyl sulfoxide, 20% (30% solutol) and 75% normal saline, respectively; the solution of each compound was administered to C57BL/6J female mice by gavage at a dose of 10 mg/kg; and the time points for blood collection were: 15 min, 30 min, 1 h, 2 h, 4 h, 6 h, 8 h and 24 h. The solution of the compound was administered to C57BL/6J female mice by intravenous bolus at a dose of 5 mg/kg, and the time points for blood collection were as follows: 5 min, 15 min, 30 min, 1 h, 2 h, 4 h, 6 h, 8 h, and 24 h.
Compound 1 was prepared into a solution with a mixed solvent formulated from 5% DME, 20% (30% solutol) and 75% normal saline; the solution of this compound was administered to C57BL/6J female mice by gavage at a dose of 10 mg/kg, and the time points for blood collection were: 15 min, 30 min, 1 h, 2 h, 4 h, 6 h, 8 h, and 24 h. The solution of the compound was administered to C57BL/6J female mice by intravenous bolus at a dose of 5 mg/kg, and the time points for blood collection were as follows: 5 min, 15 min, 30 min, 1 h, 2 h, 4 h, 6 h, 8 h, and 24 h.
Compound 195 was prepared into a solution with a mixed solvent formulated from 5% dimethyl sulfoxide, 20% PEG400 and 75% normal saline; the solution of this compound was administered to C57BL/6J female mice by gavage at a dose of 10 mg/kg; and the time points for blood collection were 15 min, 30 min, 1 h, 2 h, 4 h, 6 h, 8 h, and 24 b. The solution of the compound was administered to C57BL/6J female mice by intravenous bolus at a dose of 5 mg/kg, and the time points for blood collection were as follows: 5 min, 15 min, 30 min, 1 h, 2 b, 4 h, 6 h, 8 h, and 24 h.
Approximately 100 μL of blood was collected through the retroorbital venous plexus, and was then placed in an anticoagulant tube containing EDTA-K2. Blood samples were centrifuged at 12,000 rpm for 10 min at 4° C. to obtain plasma samples, and plasma was prepared within 30 min after blood collection. The plasma was stored in a −80° C. freezer before testing.
• 1. The samples were taken from the −80° C. freezer, thawed naturally at room temperature, and then vortexed for 5 min • 2. 10 μL of a plasma sample was precisely pipetted from different individuals into a 1.5 mL centrifuge tube. • 3. 300 μL of an internal standard working solution (the acetonitrile solution of tolbutamide) at a concentration of […] was added and mixed well. • 4. After vortexing for 5 min, the mixture was centrifuged at 12,000 rpm for 5 min. • 5. 50 μL of the supernatant was accurately pipetted into a 96-well plate preloaded with water at 150 μL/well. • 6. Vortexing was performed for 5 min for sufficient mixing, and LC-MS/MS analysis was then conducted.
The results of the concentrations of the compounds under test were output using Analyst 1.6.3 of AB. Parameters such as mean, standard deviation, coefficient of variation was calculated by Microsoft Excel (parameters directly output by Analyst 1.6.3 needed no calculation), and PK parameters were calculated by WinNonlin Phenoix 8.2 software NCA (Tmax as the median).

[3] abbreviates: po, gavage 1.0 mg/kg, read-out: AUClast po (area under the drug-time curve for 0-24 h).
The mark [4] stands for this setting: po, gavage 1.0 mg/kg, read-out: tz1/2 po (terminal elimination half-life) (converted).
Where [5] appears, read: intravenous bolus 1.0 mg/kg, read-out: AUClast iv (area under the drug-time curve for 0-24 h).
The mark [6] stands for this setting: intravenous bolus 1.0 mg/kg, read-out: tz1/2 iv (terminal elimination half-life) (converted).

Turning to `C#Cc1ccc(-c2nnc(N[C@@H]3CCCN(C)C3)nc2C)c(O)c1` [Compound 177], the AUC(0-t) in data set [1] (setting [3]) is 1920 ng·h/mL; in data set [1] (setting [5]), 1240 ng·h/mL. Also, in data set [1] (po, gavage 1.0 mg/kg), the Cmax was 293 ng/mL. Besides, the Tmax in data set [1] (po, gavage 1.0 mg/kg) amounted to 1 h. In addition, the half-life is 354 min in data set [1] (setting [4]) and 335 min in data set [1] (setting [6]). For the same compound, the clearance in data set [1] (intravenous bolus 1.0 mg/kg) is 13 mL/min/kg. Besides, the Vd in data set [1] (intravenous bolus 1.0 mg/kg) came to 5.53 L/kg. Further, the bioavailability in data set [1] was 154%.

Consider `CC#Cc1ccc(-c2nnc(N[C@@H]3CCCN(C)C3)nc2C)c(O)c1` [Compound 195], for which the Tmax in data set [2] (po, gavage 10 mg/kg, median, read-out: Tmax po (peak time of plasma concentration)) worked out at 1 h; in data set [1] (po, gavage 1.0 mg/kg) it was 4 h. Moreover, the AUC(0-t) in data set [2] (po, gavage 10 mg/kg, read-out: AUClast po (area under the drug-time curve for 0-24 h)) is 7860 ng·h/mL; in data set [2] (intravenous bolus 5 mg/kg, read-out: AUClast iv (area under the drug-time curve for 0-24 h)), 3580 ng·h/mL; in data set [1] (setting [3]), 1900 ng·h/mL; in data set [1] (setting [5]) it was 2320 ng·h/mL. Moreover, the Cmax in data set [2] (po, gavage 10 mg/kg, read-out: Cmax po (peak concentration)) is 1230 ng/mL; in data set [1] (po, gavage 1.0 mg/kg), 206 ng/mL. For the same compound, the half-life in data set [2] (po, gavage 10 mg/kg, read-out: tz1/2 po (terminal elimination half-life) (converted)) is 187 min; in data set [2] (intravenous bolus 5 mg/kg, read-out: tz1/2 iv (terminal elimination half-life) (converted)), 233 min; in data set [1] (setting [4]), 660 min; in data set [1] (setting [6]), 490 min. Also, the clearance was 23.2 mL/min/kg in data set [2] (intravenous bolus 5 mg/kg, read-out: Cl—obs iv (clearance rate) (converted)) and 6.58 mL/min/kg in data set [1] (intravenous bolus 1.0 mg/kg). Further, the Vd in data set [2] (intravenous bolus 5 mg/kg, read-out: Vss iv (volume of distribution)) was found to be 5.14 L/kg; in data set [1] (intravenous bolus 1.0 mg/kg), 3.74 L/kg. Further, the bioavailability in data set [2] (iv 5 mg/kg / po 10 mg/kg, read-out: F % (absolute bioavailability)) worked out at 110%; in data set [1], 90.7%.
